Reference: ChEMBL document CHEMBL5291721, “A preclinical secondary pharmacology resource illuminates target-adverse drug reaction associations of marketed drugs” (Nat Commun, 2023)

Columns and labels:
[1] = biological target: T1, Amine oxidase [flavin-containing] A (Homo sapiens, UniProt P21397); format: functional
T1 sequence (P21397 whole entry): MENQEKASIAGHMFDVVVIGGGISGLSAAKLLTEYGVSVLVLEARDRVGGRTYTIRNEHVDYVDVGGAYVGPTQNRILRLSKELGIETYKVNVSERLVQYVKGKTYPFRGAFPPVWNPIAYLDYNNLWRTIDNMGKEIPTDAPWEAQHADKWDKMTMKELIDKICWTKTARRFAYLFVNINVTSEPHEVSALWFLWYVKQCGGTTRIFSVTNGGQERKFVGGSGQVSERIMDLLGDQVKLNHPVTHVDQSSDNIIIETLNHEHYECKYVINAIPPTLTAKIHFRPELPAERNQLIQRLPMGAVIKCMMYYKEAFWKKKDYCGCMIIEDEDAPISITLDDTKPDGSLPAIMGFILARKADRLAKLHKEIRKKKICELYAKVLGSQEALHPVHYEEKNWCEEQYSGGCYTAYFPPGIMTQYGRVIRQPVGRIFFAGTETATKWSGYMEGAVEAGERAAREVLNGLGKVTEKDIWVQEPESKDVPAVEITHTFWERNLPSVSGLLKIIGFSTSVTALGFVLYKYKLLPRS

[2] = biological target: T2, Prostaglandin G/H synthase 1 (Homo sapiens, UniProt P23219); format: functional
T2 sequence (P23219 whole entry): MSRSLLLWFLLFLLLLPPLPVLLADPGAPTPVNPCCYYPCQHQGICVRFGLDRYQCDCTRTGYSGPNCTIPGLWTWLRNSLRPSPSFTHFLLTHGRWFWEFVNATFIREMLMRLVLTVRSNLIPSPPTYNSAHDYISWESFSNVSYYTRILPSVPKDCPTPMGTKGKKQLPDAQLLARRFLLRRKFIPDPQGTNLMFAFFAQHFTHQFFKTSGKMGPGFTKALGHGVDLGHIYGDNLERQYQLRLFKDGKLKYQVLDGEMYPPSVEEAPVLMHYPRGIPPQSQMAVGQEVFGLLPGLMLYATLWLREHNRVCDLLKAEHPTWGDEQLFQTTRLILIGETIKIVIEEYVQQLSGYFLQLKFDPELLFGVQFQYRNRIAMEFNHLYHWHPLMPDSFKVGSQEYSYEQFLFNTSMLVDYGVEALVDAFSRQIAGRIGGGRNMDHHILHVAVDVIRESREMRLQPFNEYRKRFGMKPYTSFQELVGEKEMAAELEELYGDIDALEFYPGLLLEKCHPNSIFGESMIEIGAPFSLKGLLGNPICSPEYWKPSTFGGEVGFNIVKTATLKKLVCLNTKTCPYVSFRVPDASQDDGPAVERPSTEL

[3] = biological target: T2, Prostaglandin G/H synthase 1; format: functional; remark: listed apart in the source
D(1A) dopamine receptor = D(1A) dopamine receptor (Homo sapiens, UniProt P21728)
Chain of D(1A) dopamine receptor (P21728 whole entry): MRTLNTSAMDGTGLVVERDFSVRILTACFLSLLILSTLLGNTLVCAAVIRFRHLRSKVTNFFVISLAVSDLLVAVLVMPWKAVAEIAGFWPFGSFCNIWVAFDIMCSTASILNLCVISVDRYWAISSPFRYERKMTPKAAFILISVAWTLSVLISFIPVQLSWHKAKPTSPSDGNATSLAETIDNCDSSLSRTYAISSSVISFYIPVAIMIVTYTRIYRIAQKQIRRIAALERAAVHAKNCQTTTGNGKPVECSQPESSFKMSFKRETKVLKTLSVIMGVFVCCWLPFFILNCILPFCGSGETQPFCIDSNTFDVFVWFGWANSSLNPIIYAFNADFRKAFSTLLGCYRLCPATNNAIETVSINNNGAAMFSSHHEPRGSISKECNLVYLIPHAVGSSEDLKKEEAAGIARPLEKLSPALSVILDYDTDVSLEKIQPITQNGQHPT

[4] = biological target: 5-hydroxytryptamine receptor 2B (Homo sapiens, UniProt P41595); format: functional, cell-based
[5] = biological target: Sodium-dependent noradrenaline transporter (Homo sapiens, UniProt P23975)
Chain of Sodium-dependent noradrenaline transporter (P23975 whole entry): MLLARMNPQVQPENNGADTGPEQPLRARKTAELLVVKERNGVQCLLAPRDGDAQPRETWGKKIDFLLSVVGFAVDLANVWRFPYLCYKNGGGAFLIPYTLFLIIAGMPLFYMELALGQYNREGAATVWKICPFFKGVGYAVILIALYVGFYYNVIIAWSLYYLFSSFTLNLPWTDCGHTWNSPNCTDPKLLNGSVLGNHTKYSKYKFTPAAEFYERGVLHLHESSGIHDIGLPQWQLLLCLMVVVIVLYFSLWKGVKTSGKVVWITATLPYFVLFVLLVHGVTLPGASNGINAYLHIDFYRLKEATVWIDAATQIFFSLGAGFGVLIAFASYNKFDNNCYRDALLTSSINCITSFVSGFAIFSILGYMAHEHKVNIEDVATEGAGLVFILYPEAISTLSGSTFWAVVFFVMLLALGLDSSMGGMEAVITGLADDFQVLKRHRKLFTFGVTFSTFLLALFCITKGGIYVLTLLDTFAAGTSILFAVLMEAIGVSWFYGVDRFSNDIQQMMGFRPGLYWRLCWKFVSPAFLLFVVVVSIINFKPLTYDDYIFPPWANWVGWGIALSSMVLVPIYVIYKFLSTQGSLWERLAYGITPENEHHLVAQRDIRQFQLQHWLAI

D(3) dopamine receptor = D(3) dopamine receptor (Homo sapiens, UniProt P35462)
Chain of D(3) dopamine receptor (P35462 whole entry): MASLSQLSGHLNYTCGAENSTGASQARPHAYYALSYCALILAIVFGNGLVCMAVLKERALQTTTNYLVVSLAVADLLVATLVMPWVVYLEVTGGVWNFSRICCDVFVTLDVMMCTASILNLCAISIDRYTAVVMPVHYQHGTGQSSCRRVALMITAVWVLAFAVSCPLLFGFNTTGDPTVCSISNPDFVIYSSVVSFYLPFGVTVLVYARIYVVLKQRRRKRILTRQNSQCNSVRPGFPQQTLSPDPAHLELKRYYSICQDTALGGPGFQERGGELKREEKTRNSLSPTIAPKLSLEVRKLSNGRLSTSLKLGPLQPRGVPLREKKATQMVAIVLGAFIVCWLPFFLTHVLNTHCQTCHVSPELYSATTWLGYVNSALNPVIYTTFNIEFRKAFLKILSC

[6] = biological target: cGMP-inhibited 3',5'-cyclic phosphodiesterase 3A (Homo sapiens, UniProt Q14432); format: functional
Chain of cGMP-inhibited 3',5'-cyclic phosphodiesterase 3A (Q14432 whole entry): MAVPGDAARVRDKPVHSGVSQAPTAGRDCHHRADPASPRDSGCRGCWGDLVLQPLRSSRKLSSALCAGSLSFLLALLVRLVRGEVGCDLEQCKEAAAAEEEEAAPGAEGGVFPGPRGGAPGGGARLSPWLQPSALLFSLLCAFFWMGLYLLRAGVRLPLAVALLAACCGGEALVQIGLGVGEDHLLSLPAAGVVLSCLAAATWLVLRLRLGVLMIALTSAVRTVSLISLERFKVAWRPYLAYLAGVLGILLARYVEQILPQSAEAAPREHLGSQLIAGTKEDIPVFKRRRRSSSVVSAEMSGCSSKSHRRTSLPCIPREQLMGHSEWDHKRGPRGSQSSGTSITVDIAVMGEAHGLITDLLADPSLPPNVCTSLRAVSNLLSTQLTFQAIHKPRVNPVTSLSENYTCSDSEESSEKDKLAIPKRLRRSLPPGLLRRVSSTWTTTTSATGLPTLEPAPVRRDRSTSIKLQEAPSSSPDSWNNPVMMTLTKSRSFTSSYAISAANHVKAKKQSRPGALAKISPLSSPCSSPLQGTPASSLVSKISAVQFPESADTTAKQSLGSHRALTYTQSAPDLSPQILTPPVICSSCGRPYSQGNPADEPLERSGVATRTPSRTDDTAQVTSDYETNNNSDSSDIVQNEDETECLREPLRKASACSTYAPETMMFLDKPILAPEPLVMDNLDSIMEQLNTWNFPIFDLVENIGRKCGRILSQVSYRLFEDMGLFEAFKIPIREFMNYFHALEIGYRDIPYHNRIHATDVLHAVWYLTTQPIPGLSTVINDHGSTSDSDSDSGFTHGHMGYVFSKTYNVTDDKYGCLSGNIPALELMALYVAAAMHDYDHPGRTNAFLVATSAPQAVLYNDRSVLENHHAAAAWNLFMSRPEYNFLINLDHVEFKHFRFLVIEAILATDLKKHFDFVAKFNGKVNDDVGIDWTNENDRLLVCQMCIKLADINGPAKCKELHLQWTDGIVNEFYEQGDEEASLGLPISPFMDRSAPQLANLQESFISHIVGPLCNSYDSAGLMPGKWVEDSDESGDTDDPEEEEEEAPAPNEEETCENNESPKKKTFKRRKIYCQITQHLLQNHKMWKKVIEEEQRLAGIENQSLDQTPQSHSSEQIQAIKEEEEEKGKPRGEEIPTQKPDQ

[7] = biological target: Voltage-gated inwardly rectifying potassium channel KCNH2 (Homo sapiens, UniProt Q12809); format: functional
Acetylcholinesterase = Acetylcholinesterase (Homo sapiens, UniProt P22303); format: functional
Chain of Acetylcholinesterase (P22303 whole entry): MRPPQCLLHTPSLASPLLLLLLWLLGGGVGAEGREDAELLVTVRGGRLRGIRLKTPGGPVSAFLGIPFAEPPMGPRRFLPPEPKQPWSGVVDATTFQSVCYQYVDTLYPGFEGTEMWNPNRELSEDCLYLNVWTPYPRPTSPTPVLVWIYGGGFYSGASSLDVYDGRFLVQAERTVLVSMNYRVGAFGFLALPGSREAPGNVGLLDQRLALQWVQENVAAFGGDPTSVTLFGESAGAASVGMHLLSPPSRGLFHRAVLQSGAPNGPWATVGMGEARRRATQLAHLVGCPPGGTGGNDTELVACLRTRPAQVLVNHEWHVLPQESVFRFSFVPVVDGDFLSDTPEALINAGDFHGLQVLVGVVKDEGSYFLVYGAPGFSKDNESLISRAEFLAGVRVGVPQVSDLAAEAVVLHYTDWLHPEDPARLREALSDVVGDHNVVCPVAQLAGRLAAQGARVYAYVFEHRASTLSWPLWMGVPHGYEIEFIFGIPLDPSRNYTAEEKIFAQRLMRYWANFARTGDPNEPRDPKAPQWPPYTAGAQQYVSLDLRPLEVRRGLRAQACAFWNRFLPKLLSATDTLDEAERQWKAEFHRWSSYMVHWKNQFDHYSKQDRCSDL

[8] = biological target: 3',5'-cyclic-AMP phosphodiesterase 4A (Homo sapiens, UniProt P27815); format: functional
Chain of 3',5'-cyclic-AMP phosphodiesterase 4A (P27815 whole entry): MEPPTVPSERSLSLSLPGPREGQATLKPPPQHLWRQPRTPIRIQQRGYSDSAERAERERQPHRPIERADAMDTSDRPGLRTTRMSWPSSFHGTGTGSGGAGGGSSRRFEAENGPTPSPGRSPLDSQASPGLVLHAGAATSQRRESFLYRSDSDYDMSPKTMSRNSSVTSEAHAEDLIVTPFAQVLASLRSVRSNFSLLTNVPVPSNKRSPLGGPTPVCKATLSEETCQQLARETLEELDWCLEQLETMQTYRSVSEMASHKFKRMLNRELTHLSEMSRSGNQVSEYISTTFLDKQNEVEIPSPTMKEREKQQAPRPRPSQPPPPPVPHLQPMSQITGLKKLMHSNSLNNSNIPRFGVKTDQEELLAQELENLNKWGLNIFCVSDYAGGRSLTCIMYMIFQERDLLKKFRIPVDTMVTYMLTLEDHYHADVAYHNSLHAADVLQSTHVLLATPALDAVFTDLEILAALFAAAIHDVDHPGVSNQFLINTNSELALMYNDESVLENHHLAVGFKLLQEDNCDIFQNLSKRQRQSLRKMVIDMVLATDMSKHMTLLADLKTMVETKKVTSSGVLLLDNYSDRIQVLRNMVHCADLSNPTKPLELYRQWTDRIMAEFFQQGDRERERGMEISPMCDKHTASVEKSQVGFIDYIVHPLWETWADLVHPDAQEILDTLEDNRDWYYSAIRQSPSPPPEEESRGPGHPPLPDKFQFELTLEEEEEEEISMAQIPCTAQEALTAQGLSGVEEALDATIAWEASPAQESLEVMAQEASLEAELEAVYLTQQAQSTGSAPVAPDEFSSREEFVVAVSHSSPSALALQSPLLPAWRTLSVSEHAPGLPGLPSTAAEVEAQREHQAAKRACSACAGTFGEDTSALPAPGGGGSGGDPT

[9] = biological target: T3, Alpha-1A adrenergic receptor (Homo sapiens, UniProt P35348); format: functional, cell-based
T3 sequence (P35348 whole entry): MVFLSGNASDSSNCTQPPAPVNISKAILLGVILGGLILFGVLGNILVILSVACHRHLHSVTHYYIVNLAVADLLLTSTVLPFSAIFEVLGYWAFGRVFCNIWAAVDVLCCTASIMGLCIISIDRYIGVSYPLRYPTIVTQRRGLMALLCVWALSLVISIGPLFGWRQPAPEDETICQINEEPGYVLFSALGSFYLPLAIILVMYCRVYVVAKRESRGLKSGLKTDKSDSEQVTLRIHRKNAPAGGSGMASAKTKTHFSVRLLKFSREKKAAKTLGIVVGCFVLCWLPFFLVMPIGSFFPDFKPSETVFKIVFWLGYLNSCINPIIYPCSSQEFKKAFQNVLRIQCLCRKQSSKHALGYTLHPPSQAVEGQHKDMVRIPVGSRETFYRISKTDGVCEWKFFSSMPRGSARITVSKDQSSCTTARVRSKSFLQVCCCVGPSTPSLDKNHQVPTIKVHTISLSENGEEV

Thromboxane A2 receptor = biological target: T4, Thromboxane A2 receptor (Homo sapiens, UniProt P21731); format: functional, cell-based
T4 sequence (P21731 whole entry): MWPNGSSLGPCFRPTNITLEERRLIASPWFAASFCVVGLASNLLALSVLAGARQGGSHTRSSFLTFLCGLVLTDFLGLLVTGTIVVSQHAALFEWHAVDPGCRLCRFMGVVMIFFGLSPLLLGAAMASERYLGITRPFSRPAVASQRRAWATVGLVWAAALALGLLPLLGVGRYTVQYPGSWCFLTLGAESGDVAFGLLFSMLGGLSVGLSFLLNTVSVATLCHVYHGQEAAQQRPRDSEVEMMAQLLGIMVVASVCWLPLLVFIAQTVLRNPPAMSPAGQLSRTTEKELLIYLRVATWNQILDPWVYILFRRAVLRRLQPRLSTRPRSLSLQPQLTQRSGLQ

Prothrombin = Prothrombin (Homo sapiens, UniProt P00734); format: functional
[10] = biological target: T5, 5-hydroxytryptamine receptor 1A (Homo sapiens, UniProt P08908)
T5 sequence (P08908 whole entry): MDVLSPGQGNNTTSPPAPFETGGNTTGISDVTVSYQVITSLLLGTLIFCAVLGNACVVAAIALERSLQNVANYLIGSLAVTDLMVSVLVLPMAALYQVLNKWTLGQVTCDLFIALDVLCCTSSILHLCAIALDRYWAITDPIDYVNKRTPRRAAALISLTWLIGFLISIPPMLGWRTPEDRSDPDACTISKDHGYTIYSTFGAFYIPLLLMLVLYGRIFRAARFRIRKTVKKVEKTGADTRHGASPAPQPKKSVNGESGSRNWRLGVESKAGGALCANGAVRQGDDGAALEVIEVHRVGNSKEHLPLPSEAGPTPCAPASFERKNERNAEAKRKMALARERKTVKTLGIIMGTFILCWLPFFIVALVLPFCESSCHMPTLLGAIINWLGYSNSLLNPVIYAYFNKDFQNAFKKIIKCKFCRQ

[11] = biological target: T6, Alpha-2A adrenergic receptor (Homo sapiens, UniProt P08913)
T6 sequence (P08913 whole entry): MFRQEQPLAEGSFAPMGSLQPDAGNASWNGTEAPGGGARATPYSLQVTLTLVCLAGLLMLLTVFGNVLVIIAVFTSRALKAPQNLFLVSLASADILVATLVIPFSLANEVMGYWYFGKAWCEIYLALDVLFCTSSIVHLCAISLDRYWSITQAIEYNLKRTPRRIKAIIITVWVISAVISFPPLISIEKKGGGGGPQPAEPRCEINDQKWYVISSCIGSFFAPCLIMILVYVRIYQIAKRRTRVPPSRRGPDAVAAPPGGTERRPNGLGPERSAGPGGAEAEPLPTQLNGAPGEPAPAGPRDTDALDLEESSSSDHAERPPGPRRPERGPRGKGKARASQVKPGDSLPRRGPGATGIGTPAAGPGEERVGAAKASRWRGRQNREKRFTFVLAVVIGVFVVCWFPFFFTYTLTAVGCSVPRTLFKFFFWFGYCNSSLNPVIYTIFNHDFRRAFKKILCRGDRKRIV

Measured: AC50
Note: assay procedure not described here.

CCCc1nc2c(C)cc(-c3nc4ccccc4n3C)cc2n1Cc1ccc(-c2ccccc2C(=O)O)cc1
> 1 µM: Thromboxane A2 receptor
9.55 µM: [9]
13.5 µM: [8]
29.9 µM: [6]
> 30 µM: all other assays above

CC[C@@H]1C[C@]1(NC(=O)[C@@H]1C[C@@H]2CN1C(=O)[C@H](C(C)(C)C)NC(=O)OCC(C)(C)CCCCc1cccc3c1CN(C3)C(=O)O2)C(=O)NS(=O)(=O)C1CC1
29.7 µM: [9]
26.8 µM: [3]
> 3 µM: Thromboxane A2 receptor
> 30 µM: all other assays above

CC(=O)NO [ACETOHYDROXAMIC ACID]
21.5 µM: [3]
not listed: [7]
> 30 µM: all other assays above

O=C(O)c1ccccc1 [BENZOIC ACID]
not listed: [7]
> 30 µM: all other assays above

Cc1cc(C2CCCCC2)n(O)c(=O)c1 [CICLOPIROX]
23.1 µM: [9]
not listed: Thromboxane A2 receptor
> 30 µM: all other assays above

CCCCc1oc2ccc(NS(C)(=O)=O)cc2c1C(=O)c1ccc(OCCCN(CCCC)CCCC)cc1 [DRONEDARONE]
16.8 µM: [8]
14.7 µM: Thromboxane A2 receptor
3.98 µM: [5]
1.72 µM: [10]
13.4 µM: [11]
0.642 µM: D(3) dopamine receptor
5.4 µM: D(1A) dopamine receptor
not listed: [7]
> 30 µM: all other assays above

CC(C)C(=O)Oc1ccc(CO)cc1[C@H](CCN(C(C)C)C(C)C)c1ccccc1 [FESOTERODINE]
not listed: [7]
> 30 µM: all other assays above

N=C(N)N/N=C/c1c(Cl)cccc1Cl [GUANABENZ]
22.2 µM: Thromboxane A2 receptor
0.604 µM: [10]
3.21 µM: [1]
8.81 µM: [5]
10.5 µM: D(3) dopamine receptor
0.0423 µM: [9]
8.03 µM: D(1A) dopamine receptor
not listed: [11]
> 30 µM: all other assays above

C[N+](C)(CCCCCC[N+](C)(C)C1c2ccccc2-c2ccccc21)C1c2ccccc2-c2ccccc21 [HEXAFLUORENIUM]
0.868 µM: [10]
19.3 µM: D(1A) dopamine receptor
0.171 µM: Acetylcholinesterase
2.19 µM: [11]
1.44 µM: [5]
0.0671 µM: D(3) dopamine receptor
not listed: [7]
> 30 µM: all other assays above

C[N+](C)(C)CCOC(=O)CCC(=O)OCC[N+](C)(C)C [SUXAMETHONIUM]
0.667 µM: [9]
16.6 µM: [11]
not listed: [7]
> 30 µM: all other assays above

CCC1=C[C@@H]2CN(C1)Cc1c([nH]c3ccccc13)[C@@](C(=O)OC)(c1cc3c(cc1OC)N(C)[C@H]1[C@@](O)(C(=O)OC)[C@H](OC(C)=O)[C@]4(CC)C=CCN5CC[C@]31[C@@H]54)C2 [VINORELBINE]
5.5 µM: [7]
not listed: [2]
> 30 µM: all other assays above

O=C1Cc2cc(CCN3CCN(c4nsc5ccccc45)CC3)c(Cl)cc2N1 [ZIPRASIDONE]
0.003 µM: [10]
0.507 µM: [5]
not listed: D(1A) dopamine receptor | D(3) dopamine receptor | [7] | [11]
> 30 µM: all other assays above
